Experimental data reported in patent US4073902A, “O-Substituted 7β-amino-3-cephem-3-ol-4-carboxylic acid compounds” (priority 1972, dated 1978).

How the values were obtained:
Shigella flexneri 11836 = experiment: oral ED50, systemic infection in mice; type: in vivo, Shigella flexneri; female MF 2 mice; conditions: p.o., 2 doses
[1] = tested on: Staphylococcus aureus 10B; experiment: oral ED50, systemic infection in mice; conditions: in Mus musculus, read-out: oral ED50
Description: (§4) *single dose of antibiotic administered immediately after infection

S. aureus 2999 i^+ p^+ = experiment: oral ED50, systemic infection in mice; conditions: Staphylococcus aureus, in Mus musculus, read-out: oral ED50
Description: as §4

[2] = tested on: S. aureus 102 (methicillin res.); experiment: oral ED50, systemic infection in mice; conditions: Staphylococcus aureus, in Mus musculus, read-out: oral ED50
Description: as §4

[3] = tested on: Streptococcus pyogenes 38; experiment: oral ED50, systemic infection in mice; conditions: Streptococcus pyogenes, 38, in Mus musculus, 3 h, read-out: oral ED50
S. pyogenes Aronson = experiment: oral ED50, systemic infection in mice; conditions: Streptococcus pyogenes, in Mus musculus, read-out: oral ED50
[4] = tested on: Diplococcus pneumoniae 111/84; experiment: oral ED50, systemic infection in mice; conditions: Streptococcus pneumoniae, 111/84, in Mus musculus, read-out: oral ED50
Escherichia coli 205 = experiment: oral ED50, systemic infection in mice; conditions: Escherichia coli, 205, in Mus musculus, read-out: oral ED50
E. coli 205 R^+TEM = experiment: oral ED50, systemic infection in mice; conditions: Escherichia coli, in Mus musculus, read-out: oral ED50
Description: (§5) **two doses; the first administered immediately after infection, the

E. coli 2018 = experiment: oral ED50, systemic infection in mice; conditions: Escherichia coli, 2018, in Mus musculus, read-out: oral ED50
Description: as §5

E. coli 2018 R^+TEM = experiment: oral ED50, systemic infection in mice; conditions: Escherichia coli, in Mus musculus, read-out: oral ED50
Description: as §5

E. coli 2 = experiment: oral ED50, systemic infection in mice; conditions: Escherichia coli, 2, in Mus musculus, read-out: oral ED50
Description: as §5

E. coli 5 = experiment: oral ED50, systemic infection in mice; conditions: Escherichia coli, 5, in Mus musculus, read-out: oral ED50
Description: as §5

E. coli 9 = experiment: oral ED50, systemic infection in mice; conditions: Escherichia coli, 9, in Mus musculus, read-out: oral ED50
Description: as §5

E. coli 16 = experiment: oral ED50, systemic infection in mice; conditions: Escherichia coli, 16, in Mus musculus, read-out: oral ED50
Description: as §5

E. coli 9-25.1. = experiment: oral ED50, systemic infection in mice; conditions: Escherichia coli, 925.1., in Mus musculus, read-out: oral ED50
Description: as §5

E. coli 1239/19 = experiment: oral ED50, systemic infection in mice; conditions: Escherichia coli, 1239/19, in Mus musculus, read-out: oral ED50
Description: as §5

[5] = tested on: Salmonella typhimurium 273; experiment: oral ED50, systemic infection in mice; conditions: Salmonella enterica, in Mus musculus, read-out: oral ED50
Description: as §5

S. typhimurium 277 = experiment: oral ED50, systemic infection in mice; conditions: Salmonella enterica, in Mus musculus, read-out: oral ED50
[6] = tested on: Klebsiella pneumoniae 327; experiment: oral ED50, systemic infection in mice; conditions: Klebsiella pneumoniae, 327, in Mus musculus, read-out: oral ED50
K. pneumoniae 329 = experiment: oral ED50, systemic infection in mice; conditions: Klebsiella pneumoniae, 329, in Mus musculus, read-out: oral ED50
[7] = tested on: Enterobacter cloacae P 99; experiment: oral ED50, systemic infection in mice; conditions: P99, in Mus musculus, read-out: oral ED50
proteus morganii 2359 = experiment: oral ED50, systemic infection in mice; conditions: Morganella morganii, 2359, in Mus musculus, read-out: oral ED50
P. vulgaris 1076 = experiment: oral ED50, systemic infection in mice; conditions: Proteus vulgaris, 1076, in Mus musculus, read-out: oral ED50
P. rettgeri 856 = experiment: oral ED50, systemic infection in mice; conditions: Providencia rettgeri, 856, in Mus musculus, read-out: oral ED50
P. mirabilis 774 = experiment: oral ED50, systemic infection in mice; conditions: Proteus mirabilis, 774, in Mus musculus, read-out: oral ED50
Serratia marcescens 344 = experiment: oral ED50, systemic infection in mice; conditions: Serratia marcescens, 344, in Mus musculus, read-out: oral ED50
Pasteurella multocid 341 = experiment: oral ED50, systemic infection in mice; conditions: Pasteurella, 341, in Mus musculus, read-out: oral ED50
[8] = tested on: Pseudomonas aeruginosa 799; experiment: oral ED50, systemic infection in mice; conditions: Pseudomonas aeruginosa, 799, in Mus musculus, read-out: oral ED50
in vivo = conditions: mouse, in vivo
Description: (§1) ^a calcultated according to Miller-Tainter ± standard error (Proc.
(§2) ^b calculated according to the Probit-method with 95% confidence
(§3) limits (Goulden A., Methods of Statistical Analysis, J. Wiley and Sons, […]

mice = experiment: in vivo; conditions: mice; in words, compared with II and IV
Description: as §1, §2, §3

bactericidal activity = conditions: in words, compared with cephradin (III) and cephalexin (IV)
solubility in urin = type: physicochemical; conditions: in words, compared with compound II
[9] = tested on: systemic infections due to various bacterial strains; conditions: female MF 2 mice; in words, compared with II, III, IV

| SMILES | ED50 (Shigella flexneri 11836) [mg/kg] | ED50 [1] [mg/kg] | ED50 (S. aureus 2999 i^+ p^+) [mg/kg] | ED50 [2] [mg/kg] | ED50 [3] [mg/kg] | ED50 (S. pyogenes Aronson) [mg/kg] | ED50 [4] [mg/kg] | ED50 (Escherichia coli 205) [mg/kg] | ED50 (E. coli 205 R^+TEM) [mg/kg] | ED50 (E. coli 2018) [mg/kg] | ED50 (E. coli 2018 R^+TEM) [mg/kg] | ED50 (E. coli 2) [mg/kg] | ED50 (E. coli 5) [mg/kg] | ED50 (E. coli 9) [mg/kg] | ED50 (E. coli 16) [mg/kg] | ED50 (E. coli 9-25.1.) [mg/kg] | ED50 (E. coli 1239/19) [mg/kg] | ED50 [5] [mg/kg] | ED50 (S. typhimurium 277) [mg/kg] | ED50 [6] [mg/kg] | other results |
| --- | --- | --- | --- | --- | --- | --- | --- | --- | --- | --- | --- | --- | --- | --- | --- | --- | --- | --- | --- | --- | --- |
| CC1=C(C(=O)O)N2C(=O)[C@@H](NC(=O)[C@H](N)c3ccccc3)[C@H]2SC1 [cephalexin] | 7 | 6.6 | 85 | 120 | 6 | 6.3 | 30 | 40 | 40 | 13 | 25 | > 1000 | 28 | 90 | > 300 | > 300 | 20 | 140 | 100 | 105 | ED50 (K. pneumoniae 329): 47 mg/kg; ED50 [7]: > 300 mg/kg; ED50 (proteus morganii 2359): > 1000 mg/kg; ED50 (P. vulgaris 1076): 45 mg/kg; ED50 (P. rettgeri 856): 15 to 30 mg/kg; ED50 (P. mirabilis 774): 80 mg/kg; ED50 (Serratia marcescens 344): > 300 mg/kg; ED50 (Pasteurella multocid 341): 66 mg/kg; ED50 [8]: > 1000 mg/kg |
| CC1=C(C(=O)O)N2C(=O)[C@@H](NC(=O)[C@H](N)C3=CCC=CC3)[C@H]2SC1 [cephradine] | 11 | 6 | 32 | 76 | 8 | 5.5 | 40 | 52 | 16 | 13 | 38 | > 300 | > 30 | ≥ 300 | > 300 | > 300 | ~25 | 80 | 110 | 250 | ED50 (K. pneumoniae 329): 120 mg/kg; ED50 [7]: > 1000 mg/kg; ED50 (proteus morganii 2359): > 1000 mg/kg; ED50 (P. vulgaris 1076): 80 mg/kg; ED50 (P. rettgeri 856): ≥ 30 mg/kg; ED50 (P. mirabilis 774): ~50 mg/kg; ED50 (Serratia marcescens 344): > 1000 mg/kg; ED50 (Pasteurella multocid 341): 110 mg/kg; ED50 [8]: > 300 mg/kg |
| COC1=C(C(=O)O)N2C(=O)[C@@H](NC(=O)[C@H](N)c3ccccc3)[C@H]2SC1 [compound II] | 20 | 6 | 210 | 100 | 7.5 | 2.5 | 16 | 22 | 48 | 15 | 38 | > 1000 | 13 | 210 | > 300 | > 300 | 12 | 60 | 65 | 75 | LD50 (in vivo; ip): 3800 ± 290 mg/kg; LD50 (in vivo; po): > 6000 mg/kg; ED50 (K. pneumoniae 329): 35 mg/kg; ED50 [7]: > 300 mg/kg; ED50 (proteus morganii 2359): > 300 mg/kg; ED50 (P. vulgaris 1076): 25 mg/kg; ED50 (P. rettgeri 856): 14 mg/kg; ED50 (P. mirabilis 774): 54 mg/kg; ED50 (Serratia marcescens 344): > 1000 mg/kg; ED50 (Pasteurella multocid 341): ~20 mg/kg; ED50 [8]: > 300 mg/kg |
| COC1=C(C(=O)O)N2C(=O)[C@@H](NC(=O)[C@H](N)C3=CCC=CC3)[C@H]2SC1 [compound I] | 25 | 3.3 | 25 | 17.5 | 1 | 1 | 8.5 | 9.5 | 7.3 | 3 | 14 | ~140 | 7.8 | ~30 | > 300 | ≥ 300 | 4 | 30 | 30 | 40 | LD50 (in vivo; ip): 7090 mg/kg; LD50 (in vivo; po): > 6000 mg/kg; acute toxicity (mice): more favourable as the acute toxicity of compounds II and IV; bactericidal activity (bactericidal activity): surprisingly stronger bactericidal activity as compared to cephradin (III) and cephalexin (IV); solubility in urin (solubility in urin): higher as compared to compound II; chemotherapeutic activity [9]: surprisingly stronger chemotherapeutic activity; ED50 (K. pneumoniae 329): 17 mg/kg; ED50 [7]: > 300 mg/kg; ED50 (proteus morganii 2359): > 300 mg/kg; ED50 (P. vulgaris 1076): 20 mg/kg; ED50 (P. rettgeri 856): 6.8 mg/kg; ED50 (P. mirabilis 774): 16 mg/kg; ED50 (Serratia marcescens 344): > 300 mg/kg; ED50 (Pasteurella multocid 341): 17 mg/kg; ED50 [8]: > 300 mg/kg |
